Assay results taken from PubChem BioAssay AID256 (DTP/NCI, 2004).
Values joined by “and” are separate entries in the source; they are usually repeats but may differ in a detail not shown here. Equal values may be shown once. Inconclusive results and toxic doses are left out.

Tested on: CD2F1 mice, L1210 leukemia ip, survival T/C
Assay: NCI In Vivo Anticancer Drug Screen. Data for tumor model L1210 Leukemia (intraperitoneal) in CD2F1 (CDF1) mice
Details: higher = longer survival
Summary of the method: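 Ratio T/C, where T is the treated-group value and C the vehicle-dosed control value, from mice implanted with a transplantable tumor.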

[1] = endpoint: mean survival time, dose: 12.5 mg/kg/injection, schedule: Q01DX009 (ip), vehicle: saline with Tween-80
[2] = endpoint: mean survival time, dose: 25.0 mg/kg/injection, schedule: Q01DX009 (ip), vehicle: saline with Tween-80
[3] = endpoint: mean survival time, dose: 50.0 mg/kg/injection, schedule: Q01DX009 (ip), vehicle: saline with Tween-80
[4] = endpoint: mean survival time, dose: 100.0 mg/kg/injection, schedule: Q01DX009 (ip), vehicle: saline with Tween-80
[5] = endpoint: mean survival time, dose: 200.0 mg/kg/injection, schedule: Q01DX009 (ip), vehicle: saline with Tween-80
[6] = endpoint: mean survival time, dose: 25.0 mg/kg/injection, schedule: Q01DX005 (ip), vehicle: water
[7] = endpoint: mean survival time, dose: 50.0 mg/kg/injection, schedule: Q01DX005 (ip), vehicle: water
[8] = endpoint: mean survival time, dose: 100.0 mg/kg/injection, schedule: Q01DX005 (ip), vehicle: water
[9] = endpoint: mean survival time, dose: 200.0 mg/kg/injection, schedule: Q01DX005 (ip), vehicle: water
[10] = endpoint: mean survival time, dose: 25.0 mg/kg/injection, schedule: Q01DX001 (ip), vehicle: saline with Tween-80
[11] = endpoint: mean survival time, dose: 50.0 mg/kg/injection, schedule: Q01DX001 (ip), vehicle: saline with Tween-80
[12] = endpoint: mean survival time, dose: 100.0 mg/kg/injection, schedule: Q01DX001 (ip), vehicle: saline with Tween-80
[13] = endpoint: mean survival time, dose: 200.0 mg/kg/injection, schedule: Q04DX003 (ip), vehicle: saline with Tween-80
[14] = endpoint: mean survival time, dose: 400.0 mg/kg/injection, schedule: Q04DX003 (ip), vehicle: saline with Tween-80
[15] = endpoint: mean survival time, dose: 100.0 mg/kg/injection, schedule: Q04DX003 (ip), vehicle: saline with Tween-80
[16] = endpoint: mean survival time, dose: 200.0 mg/kg/injection, schedule: Q04DX002 (ip), vehicle: saline
[17] = endpoint: mean survival time, dose: 400.0 mg/kg/injection, schedule: Q01DX009 (ip), vehicle: saline with Tween-80

CCCCOCN(COCCCC)C(C)Cc1ccccc1 (stereo not given)
T/C [1]: 94 % of control and 97 % of control
T/C [2]: 97 % of control and 102 % of control
T/C [3]: 93 % of control and 102 % of control
T/C [4]: 114 % of control and 95 % of control
T/C [5]: 123 % of control and 112 % of control

Cn1c(=O)c2c(ncn2CCNCC(O)c2ccc(O)c(O)c2)n(C)c1=O (stereo not given)
T/C (endpoint: mean survival time, dose: 12.5 mg/kg/injection, schedule: Q01DX005 (ip), vehicle: water): 100 % of control
T/C [6]: 106 % of control
T/C [7]: 97 % of control
T/C [8]: 101 % of control
T/C [9]: 106 % of control

OC1(c2ccccc2)c2cscc2C(O)(c2ccccc2)c2c(Cl)sc(Cl)c21 (stereo not given)
T/C (endpoint: mean survival time, dose: 6.25 mg/kg/injection, schedule: Q01DX001 (ip), vehicle: saline with Tween-80): 100 % of control
T/C (endpoint: mean survival time, dose: 12.5 mg/kg/injection, schedule: Q01DX001 (ip), vehicle: saline with Tween-80): 95 % of control
T/C [10]: 88 % of control

Clc1ncc2cnccn12
T/C [4]: 101 % of control

O=C1NC(=NC2CCCCC2)C2(CCNCC2)N1c1ccccc1
T/C [11]: 102 % of control
T/C [12]: 106 % of control
T/C (endpoint: mean survival time, dose: 200.0 mg/kg/injection, schedule: Q01DX001 (ip), vehicle: saline with Tween-80): 104 % of control

O=C(O)/C=C/C(=O)Nc1cccc(Oc2ccc([N+](=O)[O-])cc2[N+](=O)[O-])c1
T/C (endpoint: mean survival time, dose: 100.0 mg/kg/injection, schedule: Q01DX009 (ip), vehicle: saline): 96 % of control
T/C (endpoint: mean survival time, dose: 200.0 mg/kg/injection, schedule: Q01DX009 (ip), vehicle: saline): 100 % of control
T/C (endpoint: mean survival time, dose: 400.0 mg/kg/injection, schedule: Q01DX009 (ip), vehicle: saline): 98 % of control

NC(=S)N/N=C\c1nccc2c(N)cccc12
T/C [1]: 124 % of control
T/C [2]: 124 % of control
T/C [3]: 161 % of control
T/C (endpoint: mean survival time, dose: 75.0 mg/kg/injection, schedule: Q01DX009 (ip), vehicle: saline with Tween-80): 121 % of control and 124 % of control

OCC1OC(n2ncc3c2nnn2ncnc32)C(O)C1O (stereo not given)
T/C [6]: 92 % of control
T/C [7]: 99 % of control
T/C [8]: 94 % of control
T/C [9]: 87 % of control
T/C (endpoint: mean survival time, dose: 400.0 mg/kg/injection, schedule: Q01DX005 (ip), vehicle: water): 113 % of control

O=C(/C=C\c1ccc(NCc2ccc(C(=O)O)cc2)cc1)CCl
T/C [4]: 111 % of control
T/C [13]: 91 % of control
T/C [14]: 86 % of control

O=C1C=C(N2CC2)C(=O)C=C1N1CC1
T/C (endpoint: mean survival time, dose: 0.12 mg/kg/injection, schedule: Q01DX Z (ip), vehicle: saline): 120 % of control and 103 % of control
T/C (endpoint: mean survival time, dose: 0.25 mg/kg/injection, schedule: Q01DX Z (ip), vehicle: saline): 119 % of control
T/C (endpoint: mean survival time, dose: 0.5 mg/kg/injection, schedule: Q01DX Z (ip), vehicle: saline): 120 % of control
T/C (endpoint: mean survival time, dose: 1.0 mg/kg/injection, schedule: Q01DX Z (ip), vehicle: saline): 91 % of control

OC(Cc1ccccn1)C(Cl)(Cl)Cl (stereo not given)
T/C (endpoint: mean survival time, dose: 50.0 mg/kg/injection, schedule: Q04DX002 (ip), vehicle: saline): 97 % of control
T/C [4]: 102 % of control
T/C (endpoint: mean survival time, dose: 100.0 mg/kg/injection, schedule: Q04DX002 (ip), vehicle: saline): 114 % of control
T/C [15]: 95 % of control
T/C [5]: 112 % of control
T/C [16]: 94 % of control
T/C [13]: 111 % of control
T/C [17]: 98 % of control
T/C [14]: 103 % of control

Cc1ccc(S(=O)(=O)N2CCC(=O)c3ccccc32)cc1
T/C [4]: 95 % of control
T/C [15]: 101 % of control
T/C [5]: 97 % of control
T/C [13]: 98 % of control
T/C [17]: 95 % of control
T/C [14]: 103 % of control

COc1oc(C2C/C(=C/C(C)=C/C(C)=C/C(C)=C/c3ccc([N+](=O)[O-])cc3)CO2)c(C)c(=O)c1C (stereo not given)
T/C (endpoint: median survival time, dose: 0.25 mg/kg/injection, schedule: Q01DX009 (ip), vehicle: saline): 104 % of control and 108 % of control
T/C (endpoint: median survival time, dose: 0.5 mg/kg/injection, schedule: Q01DX009 (ip), vehicle: saline): 118 % of control and 124 % of control and 112 % of control
T/C (endpoint: median survival time, dose: 1.0 mg/kg/injection, schedule: Q01DX009 (ip), vehicle: saline): 118 % of control and 124 % of control
T/C (endpoint: median survival time, dose: 2.0 mg/kg/injection, schedule: Q01DX009 (ip), vehicle: saline): 120 % of control
T/C (endpoint: median survival time, dose: 4.0 mg/kg/injection, schedule: Q01DX009 (ip), vehicle: saline): 103 % of control

Cc1nc2ccc(Cl)cc2c(=O)o1
T/C [4]: 103 % of control
T/C [15]: 96 % of control
T/C [5]: 103 % of control
T/C [13]: 93 % of control
T/C [17]: 96 % of control
T/C [14]: 93 % of control

CCCCCCCCCCCCN(CN1C(=O)c2ccccc2C1=O)CN1C(=O)c2ccccc2C1=O
T/C [4]: 92 % of control
T/C [17]: 86 % of control

O=C(Cl)OC1CS(=O)(=O)CC1O (stereo not given)
T/C [15]: 98 % of control
T/C [13]: 98 % of control
T/C [14]: 101 % of control

COC(=O)C1C2CCC(C2)C1C(=O)OC (stereo not given)
T/C [15]: 97 % of control
T/C [13]: 101 % of control
T/C [14]: 93 % of control

O=c1ccocc1O
T/C [16]: 95 % of control
T/C (endpoint: mean survival time, dose: 400.0 mg/kg/injection, schedule: Q04DX002 (ip), vehicle: saline): 92 % of control

O=c1oc2c(ccc3ccccc32)c(O)c1-c1cccc2ccccc12
T/C [3]: 103 % of control
T/C [4]: 100 % of control
T/C [5]: 93 % of control

CCC(C)(C)C(=O)O
T/C [15]: 100 % of control
T/C [13]: 103 % of control
T/C [14]: 105 % of control

O=C(NCC#CCN1CCCC1)Nc1cccc(Cl)c1
T/C (endpoint: mean survival time, dose: 12.5 mg/kg/injection, schedule: Q04DX002 (ip), vehicle: saline with Tween-80): 102 % of control
T/C [10]: 92 % of control
T/C (endpoint: mean survival time, dose: 25.0 mg/kg/injection, schedule: Q04DX002 (ip), vehicle: saline with Tween-80): 95 % of control
T/C [11]: 106 % of control
T/C (endpoint: mean survival time, dose: 50.0 mg/kg/injection, schedule: Q04DX002 (ip), vehicle: saline with Tween-80): 87 % of control
T/C [12]: 92 % of control and 93 % of control
T/C (endpoint: mean survival time, dose: 100.0 mg/kg/injection, schedule: Q04DX002 (ip), vehicle: saline with Tween-80): 98 % of control

O=C(CCCCCCC(=O)ON1C(=O)CCC1=O)ON1C(=O)CCC1=O
T/C (endpoint: median survival time, dose: 25.0 mg/kg/injection, schedule: Q01DX009 (ip), vehicle: saline with Tween-80): 102 % of control
T/C (endpoint: median survival time, dose: 50.0 mg/kg/injection, schedule: Q01DX009 (ip), vehicle: saline with Tween-80): 102 % of control
T/C (endpoint: median survival time, dose: 100.0 mg/kg/injection, schedule: Q01DX009 (ip), vehicle: saline with Tween-80): 103 % of control
T/C (endpoint: median survival time, dose: 200.0 mg/kg/injection, schedule: Q01DX009 (ip), vehicle: saline with Tween-80): 102 % of control

O=C(O)COc1ccc(Cl)cc1Cl
T/C (endpoint: mean survival time, dose: 100.0 mg/kg/injection, schedule: Q04DX003 (ip), vehicle: saline sonified): 95 % of control
T/C (endpoint: mean survival time, dose: 200.0 mg/kg/injection, schedule: Q04DX003 (ip), vehicle: saline sonified): 92 % of control
T/C (endpoint: mean survival time, dose: 400.0 mg/kg/injection, schedule: Q04DX003 (ip), vehicle: saline sonified): 95 % of control

Fc1c(F)c(N(c2ccccc2)c2ccccc2)c(F)c(F)c1N(c1ccccc1)c1ccccc1
T/C [15]: 95 % of control
T/C [13]: 95 % of control
T/C [14]: 93 % of control

ClCCN(CCCl)CCCN1c2ccccc2Sc2ccc(Cl)cc21
T/C (endpoint: mean survival time, dose: 18.0 mg/kg/injection, schedule: Q01DX001 (ip), vehicle: saline with Tween-80): 103 % of control
T/C (endpoint: mean survival time, dose: 28.0 mg/kg/injection, schedule: Q01DX001 (ip), vehicle: saline with Tween-80): 100 % of control
T/C (endpoint: mean survival time, dose: 40.0 mg/kg/injection, schedule: Q01DX001 (ip), vehicle: saline with Tween-80): 97 % of control
T/C (endpoint: mean survival time, dose: 60.0 mg/kg/injection, schedule: Q01DX001 (ip), vehicle: saline with Tween-80): 103 % of control
T/C (endpoint: mean survival time, dose: 90.0 mg/kg/injection, schedule: Q01DX001 (ip), vehicle: saline with Tween-80): 107 % of control
T/C (endpoint: mean survival time, dose: 135.0 mg/kg/injection, schedule: Q01DX001 (ip), vehicle: saline with Tween-80): 112 % of control

C=CCNC(=O)C[n+]1cccc(C(=O)Nc2ccccc2)c1
T/C [15]: 97 % of control

COC(=O)N(C)c1cccc(OC(=O)N(C)C)c1
T/C [15]: 92 % of control
T/C [13]: 99 % of control
T/C [14]: 99 % of control

C#CCOC(=O)NCCC
T/C (endpoint: mean survival time, dose: 100.0 mg/kg/injection, schedule: Q04DX003 (ip), vehicle: Klucel (hydroxypropylcellulose) (HPC)): 96 % of control
T/C (endpoint: mean survival time, dose: 200.0 mg/kg/injection, schedule: Q04DX003 (ip), vehicle: Klucel (hydroxypropylcellulose) (HPC)): 100 % of control

Cc1cc(C)n(C(=S)[S-])n1.Cc1cc(C)n(C(=S)[S-])n1.[Pt+2]
T/C (endpoint: mean survival time, dose: 25.0 mg/kg/injection, schedule: Q04DX003 (ip), vehicle: saline with Tween-80): 90 % of control
T/C (endpoint: mean survival time, dose: 50.0 mg/kg/injection, schedule: Q04DX003 (ip), vehicle: saline with Tween-80): 90 % of control
T/C [15]: 105 % of control
